Measurements as given in US20240342348A1, “MEDICAL DEVICES INCLUDING THERAPEUTIC COATINGS FOR LOCAL DELIVERY OF A DIRECT ANTICOAGULANT” (Boston Scientific Scimed, Inc., priority 2023, published 2024).

Key:
[1] = crystalline drug; cited from earlier work
PTS = details: oral; cited from earlier work
[2] = Solubility of crystalline drug in water; assay type: physicochemical

## O=C(NC[C@H]1CN(c2ccc(N3CCOCC3=O)cc2)C(=O)O1)c1ccc(Cl)s1 [rivaroxaban, (S)-5-Chloro-N-((2-oxo-3-(4-(3-oxomorpholino)phenyl)oxazolidin-5-yl)methyl)thiophene-2-carboxamide]
[1]
  solubility in water: about 3 μg drug per mL water
PTS
  risk of PTS: significantly reduces the risk of PTS
[2]
  water solubility relative to paclitaxel and everolimus: approximately 10 times
